24 compounds from patent US10112926B2 (priority 2014, dated 2018) can be followed below.

Counter-ions that a name gives are not always drawn.

For experiment [1], the target named is PI 3-kinase alpha (Homo sapiens (Human), UniProt P42336). The settings on record: read-out: Assay A PI3Kα IC50.
The target of experiment [2] is PI 3-kinase beta (Homo sapiens (Human), UniProt P42338). The settings on record: read-out: Assay B PI3Kβ IC50.
Experiment [3] deals with Vps34 (Homo sapiens (Human), UniProt Q8NEB9). Particulars: read-out: Assay C VPS34 IC50.
Chain of Vps34 (Q8NEB9 whole entry): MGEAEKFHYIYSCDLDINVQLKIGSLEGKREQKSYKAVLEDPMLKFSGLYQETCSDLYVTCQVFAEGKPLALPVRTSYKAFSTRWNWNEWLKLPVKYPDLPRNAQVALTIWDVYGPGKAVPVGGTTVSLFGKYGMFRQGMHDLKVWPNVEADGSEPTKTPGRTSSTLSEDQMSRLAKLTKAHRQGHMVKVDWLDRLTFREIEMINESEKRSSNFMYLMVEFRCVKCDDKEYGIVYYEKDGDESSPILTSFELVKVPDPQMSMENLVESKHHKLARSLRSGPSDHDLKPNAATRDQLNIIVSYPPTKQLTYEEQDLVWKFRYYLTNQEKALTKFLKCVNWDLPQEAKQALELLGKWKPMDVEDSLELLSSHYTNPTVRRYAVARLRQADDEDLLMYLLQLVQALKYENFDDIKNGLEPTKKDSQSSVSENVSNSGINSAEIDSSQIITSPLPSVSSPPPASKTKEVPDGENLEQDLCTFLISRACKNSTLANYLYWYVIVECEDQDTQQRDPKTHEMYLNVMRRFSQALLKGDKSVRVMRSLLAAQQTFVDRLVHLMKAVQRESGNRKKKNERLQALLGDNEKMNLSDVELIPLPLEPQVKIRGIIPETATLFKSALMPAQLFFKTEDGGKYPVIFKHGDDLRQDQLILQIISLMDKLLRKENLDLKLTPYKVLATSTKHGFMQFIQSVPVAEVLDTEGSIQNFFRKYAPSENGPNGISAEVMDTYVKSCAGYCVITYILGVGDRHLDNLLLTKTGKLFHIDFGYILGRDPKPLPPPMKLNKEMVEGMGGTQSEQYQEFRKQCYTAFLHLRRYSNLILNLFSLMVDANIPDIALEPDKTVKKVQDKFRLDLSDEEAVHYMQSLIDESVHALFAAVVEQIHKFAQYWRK
Experiment [4] concerns the target PI 4-kinase beta (Homo sapiens (Human), UniProt Q9UBF8). The settings on record: read-out: Assay D PI4Kβ IC50.
For experiment [5], the target named is mTOR (Homo sapiens (Human), UniProt P42345). Particulars: read-out: Assay G mTOR IC50.

Chain of PI 3-kinase beta (P42338 whole entry, looked up): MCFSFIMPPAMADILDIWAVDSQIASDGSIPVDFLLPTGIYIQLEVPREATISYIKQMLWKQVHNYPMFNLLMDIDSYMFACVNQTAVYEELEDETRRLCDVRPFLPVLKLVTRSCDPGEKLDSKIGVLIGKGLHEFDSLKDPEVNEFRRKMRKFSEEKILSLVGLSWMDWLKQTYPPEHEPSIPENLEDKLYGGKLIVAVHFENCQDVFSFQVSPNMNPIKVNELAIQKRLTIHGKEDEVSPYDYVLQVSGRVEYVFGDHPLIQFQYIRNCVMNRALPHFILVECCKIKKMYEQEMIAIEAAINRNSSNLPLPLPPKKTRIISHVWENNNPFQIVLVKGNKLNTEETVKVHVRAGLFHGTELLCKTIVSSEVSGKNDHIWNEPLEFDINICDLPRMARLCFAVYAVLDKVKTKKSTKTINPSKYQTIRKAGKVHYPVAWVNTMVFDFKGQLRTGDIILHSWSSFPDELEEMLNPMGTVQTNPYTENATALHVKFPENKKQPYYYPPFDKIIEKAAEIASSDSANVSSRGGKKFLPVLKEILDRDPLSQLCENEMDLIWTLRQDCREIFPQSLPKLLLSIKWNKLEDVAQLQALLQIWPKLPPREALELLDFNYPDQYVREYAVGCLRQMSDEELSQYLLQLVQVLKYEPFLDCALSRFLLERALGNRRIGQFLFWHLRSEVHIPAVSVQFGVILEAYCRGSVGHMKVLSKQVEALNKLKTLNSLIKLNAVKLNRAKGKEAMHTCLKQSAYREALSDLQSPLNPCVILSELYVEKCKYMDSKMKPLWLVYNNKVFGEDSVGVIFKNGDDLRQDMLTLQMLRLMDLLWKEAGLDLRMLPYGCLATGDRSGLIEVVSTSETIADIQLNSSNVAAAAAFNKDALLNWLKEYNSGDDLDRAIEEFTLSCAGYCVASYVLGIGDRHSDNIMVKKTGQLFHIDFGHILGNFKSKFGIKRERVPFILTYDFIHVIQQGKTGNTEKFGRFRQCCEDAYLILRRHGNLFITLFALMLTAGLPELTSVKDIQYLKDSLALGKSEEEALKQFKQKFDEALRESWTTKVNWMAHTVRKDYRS
Chain of PI 3-kinase beta (P27986 whole entry partner, looked up): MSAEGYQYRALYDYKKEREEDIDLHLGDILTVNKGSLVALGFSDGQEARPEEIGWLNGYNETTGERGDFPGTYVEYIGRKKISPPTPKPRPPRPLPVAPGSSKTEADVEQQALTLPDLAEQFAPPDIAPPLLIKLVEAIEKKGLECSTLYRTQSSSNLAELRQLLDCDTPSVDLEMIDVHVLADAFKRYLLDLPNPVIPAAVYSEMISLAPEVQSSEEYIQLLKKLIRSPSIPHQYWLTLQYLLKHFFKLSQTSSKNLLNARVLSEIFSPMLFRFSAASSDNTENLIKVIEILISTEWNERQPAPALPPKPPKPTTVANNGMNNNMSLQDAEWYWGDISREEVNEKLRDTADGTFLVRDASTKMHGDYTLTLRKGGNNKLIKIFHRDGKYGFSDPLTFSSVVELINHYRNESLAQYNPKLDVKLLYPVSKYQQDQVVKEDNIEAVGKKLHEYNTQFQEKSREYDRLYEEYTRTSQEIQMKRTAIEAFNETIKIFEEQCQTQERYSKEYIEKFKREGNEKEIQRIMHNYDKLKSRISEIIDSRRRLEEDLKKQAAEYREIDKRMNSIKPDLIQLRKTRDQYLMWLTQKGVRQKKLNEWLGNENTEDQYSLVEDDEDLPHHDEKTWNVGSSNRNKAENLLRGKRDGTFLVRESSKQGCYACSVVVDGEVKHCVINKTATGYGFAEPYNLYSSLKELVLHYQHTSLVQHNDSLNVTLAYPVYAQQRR
Chain of PI 4-kinase beta (Q9UBF8 whole entry): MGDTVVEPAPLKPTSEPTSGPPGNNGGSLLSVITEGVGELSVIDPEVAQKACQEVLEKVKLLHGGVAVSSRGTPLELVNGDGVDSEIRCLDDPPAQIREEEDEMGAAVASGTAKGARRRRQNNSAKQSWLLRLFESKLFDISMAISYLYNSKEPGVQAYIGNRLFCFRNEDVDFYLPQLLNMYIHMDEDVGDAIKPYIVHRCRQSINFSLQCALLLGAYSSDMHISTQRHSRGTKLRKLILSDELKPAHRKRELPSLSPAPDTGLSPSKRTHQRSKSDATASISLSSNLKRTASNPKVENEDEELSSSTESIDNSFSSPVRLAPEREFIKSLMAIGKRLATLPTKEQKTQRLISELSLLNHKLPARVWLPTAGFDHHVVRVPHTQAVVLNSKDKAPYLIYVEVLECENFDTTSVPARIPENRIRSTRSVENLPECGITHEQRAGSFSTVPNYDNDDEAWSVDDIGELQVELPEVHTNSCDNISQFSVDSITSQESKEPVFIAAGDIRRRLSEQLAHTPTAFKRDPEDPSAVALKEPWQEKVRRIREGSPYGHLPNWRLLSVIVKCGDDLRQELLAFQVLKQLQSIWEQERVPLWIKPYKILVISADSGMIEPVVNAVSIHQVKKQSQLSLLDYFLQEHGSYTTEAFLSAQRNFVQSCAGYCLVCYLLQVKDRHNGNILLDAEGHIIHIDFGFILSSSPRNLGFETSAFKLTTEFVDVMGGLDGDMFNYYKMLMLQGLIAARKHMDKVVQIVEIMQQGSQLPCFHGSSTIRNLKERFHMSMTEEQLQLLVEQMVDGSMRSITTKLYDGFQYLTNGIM
Chain of PI 3-kinase alpha (P42336 whole entry, looked up): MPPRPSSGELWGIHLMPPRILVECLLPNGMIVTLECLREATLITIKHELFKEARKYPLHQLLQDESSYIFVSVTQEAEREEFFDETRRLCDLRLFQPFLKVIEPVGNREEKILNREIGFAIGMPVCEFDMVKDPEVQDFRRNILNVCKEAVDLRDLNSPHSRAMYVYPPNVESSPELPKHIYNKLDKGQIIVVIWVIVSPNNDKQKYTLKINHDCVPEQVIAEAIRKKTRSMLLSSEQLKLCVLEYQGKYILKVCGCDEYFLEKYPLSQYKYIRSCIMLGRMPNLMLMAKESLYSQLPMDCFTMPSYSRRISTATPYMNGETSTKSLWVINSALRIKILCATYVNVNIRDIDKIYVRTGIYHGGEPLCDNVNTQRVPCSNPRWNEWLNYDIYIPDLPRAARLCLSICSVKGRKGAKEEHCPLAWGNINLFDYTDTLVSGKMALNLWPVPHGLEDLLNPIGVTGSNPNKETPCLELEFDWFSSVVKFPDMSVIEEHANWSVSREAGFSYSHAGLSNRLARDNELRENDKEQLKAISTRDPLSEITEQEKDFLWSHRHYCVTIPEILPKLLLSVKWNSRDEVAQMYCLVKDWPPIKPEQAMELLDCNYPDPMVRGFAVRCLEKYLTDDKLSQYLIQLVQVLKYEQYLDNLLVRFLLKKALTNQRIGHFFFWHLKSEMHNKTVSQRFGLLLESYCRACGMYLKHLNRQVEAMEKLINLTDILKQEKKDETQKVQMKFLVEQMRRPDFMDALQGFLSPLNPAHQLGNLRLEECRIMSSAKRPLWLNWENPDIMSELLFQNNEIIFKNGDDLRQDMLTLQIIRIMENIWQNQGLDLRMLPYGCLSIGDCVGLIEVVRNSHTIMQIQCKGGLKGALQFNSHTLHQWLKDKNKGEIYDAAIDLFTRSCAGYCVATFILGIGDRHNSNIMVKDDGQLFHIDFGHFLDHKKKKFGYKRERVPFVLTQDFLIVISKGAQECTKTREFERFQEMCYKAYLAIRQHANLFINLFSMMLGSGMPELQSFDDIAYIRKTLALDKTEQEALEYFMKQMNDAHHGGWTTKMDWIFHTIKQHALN
Chain of PI 3-kinase alpha (P27986 whole entry partner, looked up): as the sequence (P27986 whole entry partner, looked up) above

Regarding `Cc1ncc(-c2cc(-c3cc(S(=O)(=O)NC(CO)C(F)(F)F)ccc3C)cnc2N)o1` (stereo not drawn) [Example 114.2, 3-(6-amino-5-(2-methyloxazol-5-yl)pyridin-3-yl)-4-methyl-N-(1,1,1-trifluoro-3-hydroxypropan-2-yl)benzenesulfonamide], the IC50 in experiment [1] was 0.41 µM; in experiment [2], 2.8 µM; in experiment [3] it was 4.4 µM; in experiment [4], 2.3 µM.
The like results for `Cc1ncc(-c2cc(-c3cc(S(=O)(=O)NC4CCC(O)(C(F)(F)F)C4)ccc3C)cnc2N)o1` (stereo not drawn) [Example 114.4, 3-(6-amino-5-(2-methyloxazol-5-yl)pyridin-3-yl)-N-(3-hydroxy-3-(trifluoromethyl)cyclo-pentyl)-4-methylbenzenesulfon-amide] were, in that order, 0.08 µM, 1.2 µM, 1.2 µM and 0.63 µM.
`Cc1ncc(-c2cc(-c3cc(S(=O)(=O)NCC(C)(C)CO)ccc3C)cnc2N)s1` [Example 83.4, 3-(6-Amino-5-(2-methylthiazol-5-yl)pyridin-3-yl)-N-(3-hydroxy-2,2-dimethylpropyl)-4-methylbenzenesulfonamide]: the concentration for half-maximal inhibition (IC50) was 0.35 µM in experiment [1], 2.1 µM in experiment [2], 2.2 µM in experiment [3] and 1.3 µM in experiment [4].
In the case of `Cc1ncc(-c2cc(-c3cc(S(=O)(=O)NCC4(O)CCOCC4)ccc3C)cnc2N)o1` [Example 114.3, 3-(6-amino-5-(2-methyloxazol-5-yl)pyridin-3-yl)-N-((4-hydroxytetrahydro-2H-pyran-4-yl)methyl)-4-methylbenzenesulfon-amide], the IC50 in experiment [1] is 0.59 µM; in experiment [2], 8.4 µM; in experiment [3], above 10 µM; in experiment [4], 8.1 µM.
`Cc1cnn(-c2cc(-c3cc(S(=O)(=O)NCC(C)(C)O)ccc3C)cnc2N)c1` [Example 60, 3-(6-Amino-5-(4-methyl-1H-pyrazol-1-yl)pyridin-3-yl)-N-(2-hydroxy-2-methylpropyl)-4-methylbenzenesulfonamide]: the 50% inhibitory concentration (IC50) in experiment [2], in experiment [3] and in experiment [5] was above 10 µM each time.
As to `Cc1cc(-c2cc(-c3cc(S(=O)(=O)NC[C@@H]4CCCO4)ccc3C)cnc2N)on1` [Example 40, (S)-3-(6-Amino-5-(3-methylisoxazol-5-yl)pyridin-3-yl)-4-methyl-N-((tetrahydrofuran-2-yl)methyl)benzenesulfonamide], the figures for the half-maximal inhibitory concentration (IC50) in experiment [2], in experiment [3] and in experiment [4] were 4 µM, above 10 µM and 3.2 µM, respectively.
On to `Cc1cc(-c2cc(-c3cc(S(=O)(=O)N4CC(C)(O)C4)ccc3C)cnc2N)on1` [Example 37.28, 1-((3-(6-Amino-5-(3-methylisoxazol-5-yl)pyridin-3-yl)-4-methylphenyl)sulfonyl)-3-methylazetidin-3-ol], for which the IC50 in experiment [2] is 3.8 µM; in experiment [3], above 10 µM; in experiment [4], 2.8 µM.
In the case of `Cc1ncc(-c2cc(-c3cc(S(=O)(=O)NCC4(O)CC4)ccc3C)cnc2N)o1` [Example 114.1, 3-(6-amino-5-(2-methyloxazol-5-yl)pyridin-3-yl)-N-((1-hydroxycyclopropyl)methyl)-4-methylbenzenesulfon-amide], the half-maximal inhibitory concentration (IC50) in experiment [1] turned out to be 0.25 µM; in experiment [3], 3.4 µM; in experiment [4], 4.5 µM.
With `CCc1cc(-c2cc(-c3cc(S(=O)(=O)NCC(C)(C)O)ccc3C)cnc2N)on1` [Example 4.6, 3-(6-Amino-5-(3-ethylisoxazol-5-yl)pyridin-3-yl)-N-(2-hydroxy-2-methylpropyl)-4-methyl-benzenesulfonamide hydrochloride], the figures for the concentration for half-maximal inhibition (IC50) in experiment [3], in experiment [4] and in experiment [5] were above 10 µM, 2.7 µM and 1.4 µM, respectively.
On to `Cc1noc(-c2cc(-c3cc(S(=O)(=O)NC4CCOCC4)ccc3C)cnc2N)n1` [Example 49, 3-(6-Amino-5-(3-methyl-1,2,4-oxadiazol-5-yl)pyridin-3-yl)-4-methyl-N-(tetrahydro-2H-pyran-4-yl)benzenesulfonamide], for which the IC50 in experiment [3] is above 10 µM; in experiment [4] it was 6.8 µM; in experiment [5] it was 8.1 µM.
On to `Cc1noc(-c2cc(-c3cc(S(=O)(=O)NCC4(CO)CCCC4)ccc3C)cnc2N)n1` [Example 37.13, 3-(6-Amino-5-(3-methyl-1,2,4-oxadiazol-5-yl)pyridin-3-yl)-N-((1-(hydroxymethyl)cyclopentyl)methyl)-4-methylbenzenesulfonamide], for which the concentration for half-maximal inhibition (IC50) in experiment [3] was above 10 µM; in experiment [4], 5 µM; in experiment [5], above 10 µM.
For `Cc1ccc(S(=O)(=O)NCCC(C)(C)O)cc1-c1cnc(N)c(-c2cnn(C)c2)c1` [Example 2, 3-(6-Amino-5-(1-methyl-1H-pyrazol-4-yl)pyridin-3-yl)-N-(3-hydroxy-3-methylbutyl)-4-methylbenzenesulfonamide], the values for the IC50 in experiment [3], in experiment [4] and in experiment [5] were above 9.1 µM, 5.4 µM and above 9.1 µM, respectively.
Regarding `Cc1noc(-c2cc(-c3cc(S(=O)(=O)NCC(C)(C)O)c(C)cc3F)cnc2N)n1` [Example 113, 5-(6-amino-5-(3-methyl-1,2,4-oxadiazol-5-yl)pyridin-3-yl)-4-fluoro-N-(2-hydroxy-2-methylpropyl)-2-methylbenzenesulfonamide], the figures for the IC50 in experiment [1], in experiment [2] and in experiment [3] were 1.15 µM, 8.85 µM and above 10 µM, respectively.
`Cc1cc(-c2cc(-c3cc(S(=O)(=O)N[C@H]4CC[C@H](O)CC4)ccc3C)cnc2N)on1` [Example 5.4, trans 3-(6-Amino-5-(3-methylisoxazol-5-yl)pyridin-3-yl)-N-(-4-hydroxycyclohexyl)-4-methylbenzenesulfon-amide hydrochloride]: the concentration for half-maximal inhibition (IC50) in experiment [1] was 0.25 µM; in experiment [3], above 10 µM.
`Cc1ccc(S(=O)(=O)N[C@H]2CC[C@H](O)CC2)cc1-c1cnc(N)c(-c2cnn(CC(F)(F)F)c2)c1` [Example 4.2, trans 3-(6-Amino-5-(1-(2,2,2-trifluoroethyl)-1H-pyrazol-4-yl)pyridin-3-yl)-N-(4-hydroxycyclohexyl)-4-methyl-benzenesulfonamide]: the IC50 was above 10 µM in experiment [3], 0.65 µM in experiment [4] and 1.3 µM in experiment [5].
With `Cc1ccc(S(=O)(=O)N[C@H]2CC[C@H](O)CC2)cc1-c1cnc(N)c(-c2cnn(C)n2)c1` [Example 4.5, trans 3-(6-Amino-5-(2-methyl-2H-1,2,3-triazol-4-yl)pyridin-3-yl)-N-(4-hydroxycyclohexyl)-4-methylbenzene sulfonamide hydrochloride], the concentration for half-maximal inhibition (IC50) is above 10 µM in experiment [3], 5.25 µM in experiment [4] and above 10 µM in experiment [5].
On to `Cc1ccc(S(=O)(=O)NCC(C)(C)O)cc1-c1cnc(N)c(-c2cnn(C)n2)c1` [Example 4.4, 3-(6-amino-5-(2-methyl-2H-1,2,3-triazol-4-yl)pyridin-3-yl)-N-(2-hydroxy-2-methylpropyl)-4-methylbenzenesulfonamide hydrochloride], for which the IC50 in experiment [3] is above 10 µM; in experiment [4], 8.2 µM; in experiment [5] it was above 10 µM.
As to `Cc1cc(-c2cc(-c3cc(S(=O)(=O)NCC(C)(C)O)ccc3C)cnc2N)sn1` [Example 4.8, 3-(6-Amino-5-(3-methylisothiazol-5-yl)pyridin-3-yl)-N-(2-hydroxy-2-methylpropyl)-4-methyl-benzenesulfonamide hydrochloride], the IC50 in experiment [3] is above 10 µM; in experiment [4], 3.15 µM; in experiment [5] it was above 10 µM.
Take `Cc1noc(-c2cc(-c3cc(S(=O)(=O)N[C@H]4CC[C@H](CO)CC4)ccc3C)cnc2N)n1` [Example 19, trans 3-[6-Amino-5-(3-methyl-[1,2,4]oxadiazol-5-yl)-pyridin-3-yl]-N-(4-hydroxymethyl-cyclohexyl)-4-methyl-benzenesulfonamide hydrochloride]: the results for the half-maximal inhibitory concentration (IC50) in experiment [3], in experiment [4] and in experiment [5] were above 10 µM, 1.3 µM and above 10 µM, respectively.
Regarding `Cc1ncc(-c2cc(-c3cc(S(=O)(=O)NCC4CCCOC4)ccc3C)cnc2N)o1` (stereo not drawn) [Example 104.8, 3-(6-amino-5-(2-methyloxazol-5-yl)pyridin-3-yl)-4-methyl-N-((tetrahydro-2H-pyran-3-yl)methyl)benzenesulfon-amide], the half-maximal inhibitory concentration (IC50) in experiment [2] turned out to be 0.8 µM; in experiment [3], 4.8 µM; in experiment [4] it was 2 µM.
In the case of `Cc1noc(-c2cc(-c3cc(S(=O)(=O)NCC4(CO)CCC4)ccc3C)cnc2N)n1` [Example 37.26, 3-(6-Amino-5-(3-methyl-1,2,4-oxadiazol-5-yl)pyridin-3-yl)-N-((1-(hydroxymethyl)cyclobutyl)methyl)-4-methylbenzenesulfonamide], the concentration for half-maximal inhibition (IC50) in experiment [3], in experiment [4] and in experiment [5] was above 10 µM each time.
With `Cc1noc(-c2cc(-c3cc(S(=O)(=O)NOC(C)(C)C)ccc3C)cnc2N)n1` [Example 47, 3-(6-Amino-5-(3-methyl-1,2,4-oxadiazol-5-yl)pyridin-3-yl)-N-(tert-butoxy)-4-methylbenzenesulfonamide], the IC50 in experiment [3] was above 10 µM; in experiment [4] it was 4.4 µM; in experiment [5], 4 µM.
For the compound `Cc1cc(-c2cc(-c3cc(S(=O)(=O)N[C@H]4CC[C@H](CO)CC4)ccc3C)cnc2N)ccn1` [Example 77, trans-3-(2-Amino-2′-methyl-[3,4′-bipyridin]-5-yl)-N-(−4-(hydroxymethyl)cyclohexyl)-4-methylbenzenesulfonamide hydrochloride], the IC50 is above 10 µM in experiment [3], 2.1 µM in experiment [4] and above 10 µM in experiment [5].
For the compound `Cc1ncc(-c2cc(-c3cc(S(=O)(=O)NCCCO)ccc3C)cnc2N)s1` [Example 9, 3-[6-Amino-5-(2-methyl-thiazol-5-yl)-pyridin-3-yl]-N-(3-hydroxy-propyl)-4-methyl-benzenesulfonamide], the 50% inhibitory concentration (IC50) turned out to be 0.89 µM in experiment [3], 1.92 µM in experiment [4] and 5.9 µM in experiment [5].
